Test results from PubChem BioAssay AID2060627 (Molecular Pharmacology Branch, DTP, NCI, 2025).
pIC50: −log10 of the molar value.

Tested on: 156681-154-R-J1-PDC complex spheroid viability
Assay: Anticancer human tumor 156681-154-R-J1-PDC patient-derived melanoma cell line growth inhibition [CLK]
Settings: for pIC50: curve of first compound; for viability, T/C: stronger effect = lower value; active = viability on the fitted dose curve at most 10% of control; inactive = the rest
In short: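 Patient-derived tumor cells grown as complex spheroids with HUVEC endothelial cells and mesenchymal stem cells, treated with drug combinations. Concentrations descend in half-log steps from near clinical Cmax, or from 10 microM if Cmax unknown.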

[1] = second compound 0.0316 µM, first compound 0.0316 µM
[2] = second compound 0.0316 µM, first compound 0.1 µM
[3] = second compound 0.0316 µM, first compound 0.316 µM
[4] = second compound 0.0316 µM, first compound 1 µM
[5] = second compound 0.0316 µM, first compound 3.16 µM
[6] = second compound 0.0316 µM, first compound 10 µM
[7] = second compound 0.1 µM, first compound 0.0316 µM
[8] = second compound 0.1 µM, first compound 0.1 µM
[9] = second compound 0.1 µM, first compound 0.316 µM
[10] = second compound 0.1 µM, first compound 1 µM
[11] = second compound 0.1 µM, first compound 3.16 µM
[12] = second compound 0.1 µM, first compound 10 µM
[13] = second compound 0.316 µM, first compound 0.0316 µM
[14] = second compound 0.316 µM, first compound 0.1 µM
[15] = second compound 0.316 µM, first compound 0.316 µM
[16] = second compound 0.316 µM, first compound 1 µM
[17] = second compound 0.316 µM, first compound 3.16 µM
[18] = second compound 0.316 µM, first compound 10 µM
[19] = second compound 1 µM, first compound 0.0316 µM
[20] = second compound 1 µM, first compound 0.1 µM
[21] = second compound 1 µM, first compound 0.316 µM
[22] = second compound 1 µM, first compound 1 µM
[23] = second compound 1 µM, first compound 3.16 µM
[24] = second compound 1 µM, first compound 10 µM
[25] = second compound 3.16 µM, first compound 0.0316 µM
[26] = second compound 3.16 µM, first compound 0.1 µM
[27] = second compound 3.16 µM, first compound 0.316 µM
[28] = second compound 3.16 µM, first compound 1 µM
[29] = second compound 3.16 µM, first compound 3.16 µM
[30] = second compound 3.16 µM, first compound 10 µM
[31] = second compound 10 µM, first compound 0.0316 µM
[32] = second compound 10 µM, first compound 0.1 µM
[33] = second compound 10 µM, first compound 0.316 µM
[34] = second compound 10 µM, first compound 1 µM
[35] = second compound 10 µM, first compound 3.16 µM
[36] = second compound 10 µM, first compound 10 µM
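Also: spheroids exposed to the agents for seven days.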
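For viability, T/C in this document: 100% = DMSO vehicle control viability.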

CC(=O)O[C@H]1C(=O)[C@@]2(C)[C@H]([C@H](OC(=O)c3ccccc3)[C@]3(O)C[C@H](OC(=O)[C@H](O)[C@@H](NC(=O)c4ccccc4)c4ccccc4)C(C)=C1C3(C)C)[C@]1(OC(C)=O)CO[C@@H]1C[C@@H]2O + CN1CCN(c2cc(C(=O)Nc3cc4cc(-c5cnn(C)c5)ccc4cn3)ccn2)CC1
> 7.50: pIC50 (second compound 0.0316 µM) | pIC50 (second compound 0.1 µM) | pIC50 (second compound 0.316 µM) | pIC50 (second compound 1 µM) | pIC50 (second compound 3.16 µM) | pIC50 (second compound 10 µM)
inactive: viability, T/C [1] 19.4% | viability, T/C [2] 13.1% | viability, T/C [3] 18.9% | viability, T/C [4] 16.5% | viability, T/C [5] 23.6% | viability, T/C [6] 28.9% | viability, T/C [7] 17.6% | viability, T/C [8] 14.6% | viability, T/C [9] 15.4% | viability, T/C [10] 12.5% | viability, T/C [11] 16.3% | viability, T/C [12] 24.3% | viability, T/C [13] 15.1% | viability, T/C [14] 21.1% | viability, T/C [15] 13.8% | viability, T/C [16] 13% | viability, T/C [17] 14.8% | viability, T/C [18] 16.8%
active: viability, T/C [19] 0.09% | viability, T/C [20] 0.13% | viability, T/C [21] 0.13% | viability, T/C [22] 0.34% | viability, T/C [23] 0.12% | viability, T/C [24] 0.13% | viability, T/C [25] 0.09% | viability, T/C [26] 0.74% | viability, T/C [27] 0.35% | viability, T/C [28] 0.08% | viability, T/C [29] 0.23% | viability, T/C [30] 0.22% | viability, T/C [31] 0.09% | viability, T/C [32] 0.7% | viability, T/C [33] 0.46% | viability, T/C [34] 0.52% | viability, T/C [35] 0.61% | viability, T/C [36] 0.3%

C=CC(=O)N1CCN(c2nc(=O)n(-c3c(C)ccnc3C(C)C)c3nc(-c4c(O)cccc4F)c(F)cc23)C(C)C1 (centres undefined) + CNC(=O)c1ccc(Nc2nc(OC3CCCC3)c3c(-c4ccc5nc(C)oc5c4)c[nH]c3n2)c(OC)c1
inactive: viability, T/C [1] 83.4% | viability, T/C [2] 105% | viability, T/C [3] 91.4% | viability, T/C [4] 106% | viability, T/C [5] 129% | viability, T/C [6] 82.7% | viability, T/C [7] 47.1% | viability, T/C [8] 67.9% | viability, T/C [9] 71.1% | viability, T/C [10] 58.5% | viability, T/C [11] 70.6% | viability, T/C [12] 36% | viability, T/C [13] 61.1% | viability, T/C [14] 71.6% | viability, T/C [15] 72.3% | viability, T/C [16] 71.2% | viability, T/C [17] 65.6% | viability, T/C [18] 27.2% | viability, T/C [19] 51.9% | viability, T/C [20] 51% | viability, T/C [21] 36.9% | viability, T/C [22] 52.3% | viability, T/C [23] 49% | viability, T/C [24] 14.8% | viability, T/C [25] 35% | viability, T/C [26] 40.4% | viability, T/C [27] 33.4% | viability, T/C [28] 44.2% | viability, T/C [29] 40.1% | viability, T/C [30] 23.4% | viability, T/C [31] 41.6% | viability, T/C [32] 30.6% | viability, T/C [33] 37.4% | viability, T/C [34] 36.3% | viability, T/C [35] 30.9% | viability, T/C [36] 12.4%
> 7.50: pIC50 (second compound 1 µM) | pIC50 (second compound 3.16 µM) | pIC50 (second compound 10 µM)
< 5.00: pIC50 (second compound 0.0316 µM) | pIC50 (second compound 0.1 µM)
5.29: pIC50 (second compound 0.316 µM)
